Tests used:
[1] = Selectivity for rat recombinant FAAH over KIAA1363
[2] = biological target: T1, Fatty-acid amide hydrolase 1 (Rattus norvegicus, UniProt P97612); assay: Inhibition of rat recombinant FAAH expressed in Escherichia coli
T1 sequence (P97612 whole entry): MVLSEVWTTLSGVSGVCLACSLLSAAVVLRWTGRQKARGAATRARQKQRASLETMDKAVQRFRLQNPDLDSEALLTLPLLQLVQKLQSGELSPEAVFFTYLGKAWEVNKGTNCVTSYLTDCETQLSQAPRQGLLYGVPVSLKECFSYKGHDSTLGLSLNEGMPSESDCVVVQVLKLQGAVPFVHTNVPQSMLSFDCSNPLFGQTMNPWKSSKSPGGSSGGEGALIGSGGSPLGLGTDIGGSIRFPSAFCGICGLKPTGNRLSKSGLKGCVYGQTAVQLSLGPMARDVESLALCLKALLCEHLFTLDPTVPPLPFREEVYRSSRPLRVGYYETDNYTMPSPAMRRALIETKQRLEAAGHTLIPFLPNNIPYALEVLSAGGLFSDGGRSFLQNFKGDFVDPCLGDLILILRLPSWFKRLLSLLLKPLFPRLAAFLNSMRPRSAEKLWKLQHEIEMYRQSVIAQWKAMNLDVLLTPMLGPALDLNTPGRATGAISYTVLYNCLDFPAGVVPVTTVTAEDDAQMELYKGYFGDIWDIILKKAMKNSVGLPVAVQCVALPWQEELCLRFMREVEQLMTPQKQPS

[3] = Selectivity for rat recombinant FAAH over TGH

Structure (SMILES) | Ratio IC50 [1] | Ki [2] [nM] | Ratio IC50 [3] | Selectivity ratio [1]
O=C(CCCCCCc1ccccc1C(F)(F)F)c1ncc(-c2ccccn2)o1 | > 3300 | 4 | 230 | –
O=C(O)c1cccc(CCCCCCC(=O)c2ncc(-c3ccccn3)o2)c1 | – | > 600 | – | –
CC(C)(C)OC(=O)Nc1cccc(CCCCCCC(=O)c2ncc(-c3ccccn3)o2)c1 | – | 2.4 | – | –
O=C(CCCCC#Cc1cccc(Cl)c1)c1ncc(-c2ccccn2)o1 | – | 7 | – | –
O=C(CCc1ccc(OCc2ccccc2)cc1)c1nc2ncccc2o1 | 7000 | – | 130 | –
O=C(CCCCC#Cc1ccc(Cl)cc1)c1ncc(-c2ccccn2)o1 | – | 20 | – | –
CS(=O)(=O)c1ccc(CCCCCCC(=O)c2ncc(-c3ccccn3)o2)cc1 | > 2000 | 19 | 40 | –
COc1cccc(CCCCCCC(=O)c2ncc(-c3ccccn3)o2)c1 | > 5000 | 2.5 | 50 | –
COC(=O)c1ccccc1CCCCCCC(=O)c1ncc(-c2ccccn2)o1 | > 250000 | 1 | 25000 | –
CC(C)(C)OC(=O)Nc1cccc(C#CCCCCC(=O)c2ncc(-c3ccccn3)o2)c1 | – | 12 | – | –
O=C(CCCCCCc1ccc([N+](=O)[O-])cc1)c1ncc(-c2ccccn2)o1 | > 200000 | 6.5 | 100000 | –
O=C(CCCCCCc1ccccc1F)c1ncc(-c2ccccn2)o1 | > 3300 | 1.7 | 17 | –
CSc1ccc(CCCCCCC(=O)c2ncc(-c3ccccn3)o2)cc1 | > 5000 | 2.5 | 40 | –
O=C(CCCCc1ccccc1)CC(=O)c1ncc(-c2ccccn2)o1 | – | > 2000 | – | –
O=C(CCc1ccc(Cc2ccccc2)cc1)c1ncc(-c2ccccn2)o1 | > 33000 | – | 300 | –
O=C(CCC(=O)c1ncc(-c2ccccn2)o1)NCCc1ccccc1 | – | > 100000 | – | –
O=C(c1ncc(-c2ccccn2)o1)C1CCCC1 | – | 2500 | – | –
O=C(CCCCC#Cc1cccnc1)c1ncc(-c2ccccn2)o1 | – | 300 | – | –
O=C(CCCCC#Cc1ccccc1)c1ncc(-c2ccccn2)o1 | – | 25 | – | –
O=C(CCCCC#Cc1ccncc1)c1ncc(-c2ccccn2)o1 | – | 150 | – | –
Nc1ccc(CCCCCCC(=O)c2ncc(-c3ccccn3)o2)cc1 | > 25000 | 3 | 750 | –
Cc1ccccc1CCCCCCC(=O)c1ncc(-c2ccccn2)o1 | > 3300 | 3 | 100 | –
O=C(CCCCCCc1ccccn1)c1ncc(-c2ccccn2)o1 | > 3300 | 120 | 33 | –

Structure (SMILES) | Ratio IC50 [1] | Ki [2] [nM] | Ratio IC50 [3] | Selectivity ratio [1]
O=C(CSCCCCc1ccccc1)c1ncc(-c2ccccn2)o1 | – | 4 | – | –
O=C(c1ncc(-c2ccccn2)o1)C1CC1 | – | > 50000 | – | –
O=C(CCCCCCc1ccc(F)cc1)c1ncc(-c2ccccn2)o1 | > 5000 | 3.2 | 50 | –
O=C(CCc1ccc(Sc2ccccc2)cc1)c1ncc(-c2ccccn2)o1 | > 50000 | – | 30 | –
COC(=O)CCCC(=O)c1ncc(-c2ccccn2)o1 | – | 7000 | – | –
COc1ccc(CCCCCCC(=O)c2ncc(-c3ccccn3)o2)cc1 | – | 6.2 | 250 | > 5000
O=C(CCc1ccc(OCc2ccccc2)cc1)c1ncc(-c2ccccn2)o1 | > 100000 | – | 8000 | –
O=C(CS(=O)(=O)CCCCc1ccccc1)c1ncc(-c2ccccn2)o1 | – | 20000 | – | –
O=C(CCc1cccc(OCc2ccccc2)c1)c1ncc(-c2ccccn2)o1 | > 1000 | – | 20 | –
COC(=O)CCC(=O)c1ncc(-c2ccccn2)o1 | – | > 100000 | – | –
O=C(CCCCCCc1ccc(Cl)cc1)c1ncc(-c2ccccn2)o1 | > 3300 | 2.7 | 67 | –
CN(CCCCc1ccccc1)CC(O)c1ncc(-c2ccccn2)o1 (centres undefined) | – | > 100000 | – | –
CSc1ccccc1CCCCCCC(=O)c1ncc(-c2ccccn2)o1 | > 3300 | 3.3 | 300 | –
CN(CCCC(=O)c1ncc(-c2ccccn2)o1)CCc1ccccc1 | – | 3500 | – | –
O=C(CCCC(O)CCc1ccccc1)c1ncc(-c2ccccn2)o1 (centres undefined) | – | 1500 | – | –
COC(=O)c1cccc(CCCCCCC(=O)c2ncc(-c3ccccn3)o2)c1 | > 250000 | 1.9 | 25000 | –
O=C(CCCCCCc1ccccc1C(=O)O)c1ncc(-c2ccccn2)o1 | – | > 600 | – | –
O=C(CCCCCCc1cccs1)c1ncc(-c2ccccn2)o1 | > 5000 | 4.3 | 35 | –
O=C(CCCCCS(=O)(=O)c1ccccc1)c1ncc(-c2ccccn2)o1 | – | 6000 | – | –
O=C(CCCCC#Cc1ccccn1)c1ncc(-c2ccccn2)o1 | – | 280 | – | –
Cc1ccc(CCCCCCC(=O)c2ncc(-c3ccccn3)o2)cc1 | > 2500 | 2.8 | 125 | –
O=C(CCCCCCc1ccc(C(F)(F)F)cc1)c1ncc(-c2ccccn2)o1 | > 10000 | 4 | 20 | –
O=C(CCCCC#Cc1ccccc1F)c1ncc(-c2ccccn2)o1 | – | 8 | – | –

Structure (SMILES) | Ratio IC50 [1] | Ki [2] [nM] | Ratio IC50 [3] | Selectivity ratio [1]
O=C(CCCCC#Cc1cccc(Cl)c1Cl)c1ncc(-c2ccccn2)o1 | – | 5 | – | –
O=C(C[S+]([O-])CCCCc1ccccc1)c1ncc(-c2ccccn2)o1 (centres undefined) | – | 1000 | – | –
CC(C)(C)OC(=O)Nc1ccc(C#CCCCCC(=O)c2ncc(-c3ccccn3)o2)cc1 | – | 23 | – | –
O=C(CCCCC#Cc1ccccc1Cl)c1ncc(-c2ccccn2)o1 | – | 13 | – | –
O=C(CCl)c1ncc(-c2ccccn2)o1 | – | 800 | – | –
Cc1cccc(CCCCCCC(=O)c2ncc(-c3ccccn3)o2)c1 | > 3300 | 3.3 | 170 | –
O=C(CCCC(=O)c1ncc(-c2ccccn2)o1)NCc1ccccc1 | – | 20000 | – | –
O=C(CCCCC(O)Cc1ccccc1)c1ncc(-c2ccccn2)o1 (centres undefined) | – | 200 | – | –
O=C(CCCCC#Cc1cccc(F)c1)c1ncc(-c2ccccn2)o1 | – | 3.2 | – | –
O=C(CCCCC#Cc1ccccc1C(F)(F)F)c1ncc(-c2ccccn2)o1 | – | 16 | – | –
O=C(CCCCCOc1ccccc1)c1ncc(-c2ccccn2)o1 | – | 14 | – | –
O=C(CCCC[S+]([O-])Cc1ccccc1)c1ncc(-c2ccccn2)o1 (centres undefined) | – | 2500 | – | –
O=C(CCCCCCc1ccccc1Cl)c1ncc(-c2ccccn2)o1 | > 5000 | 1.9 | 30 | –
CCCCCCc1cccc(CCCCCCC(=O)c2ncc(-c3ccccn3)o2)c1 | – | 15 | 250 | > 1250
COC(=O)c1ccc(C#CCCCCC(=O)c2ncc(-c3ccccn3)o2)cc1 | – | 25 | – | –
O=C(COCCCCc1ccccc1)c1ncc(-c2ccccn2)o1 | > 58 | 60 | 34 | –
CN(CCCCCC(=O)c1ncc(-c2ccccn2)o1)c1ccccc1 | – | 40 | – | –
O=C(CCc1ccc(COc2ccccc2)cc1)c1ncc(-c2ccccn2)o1 | > 50000 | – | 1000 | –
O=C(CCCCCCc1cccc(Cl)c1)c1ncc(-c2ccccn2)o1 | > 50000 | – | 250 | –
CN(CCCc1ccccc1)CCC(=O)c1ncc(-c2ccccn2)o1 | – | 200 | – | –
O=C(CCCCC#Cc1ccc([N+](=O)[O-])cc1)c1ncc(-c2ccccn2)o1 | – | 31 | – | –
CN(CCCCC(=O)c1ncc(-c2ccccn2)o1)Cc1ccccc1 | – | 200 | – | –
O=C(CCCCS(=O)(=O)Cc1ccccc1)c1ncc(-c2ccccn2)o1 | – | > 10000 | – | –

Structure (SMILES) | Ratio IC50 [1] | Ki [2] [nM] | Ratio IC50 [3] | Selectivity ratio [1]
COC(=O)CCCCC(=O)c1ncc(-c2ccccn2)o1 | – | 1800 | – | –
O=C(CC(O)CCCCc1ccccc1)c1ncc(-c2ccccn2)o1 (centres undefined) | – | 35 | – | –
O=C(CCCCCC(O)c1ccccc1)c1ncc(-c2ccccn2)o1 (centres undefined) | – | 35 | – | –
CC(C)(C)OC(=O)Nc1ccc(CCCCCCC(=O)c2ncc(-c3ccccn3)o2)cc1 | – | 5.6 | – | –
O=C(CCOCCCc1ccccc1)c1ncc(-c2ccccn2)o1 | – | 90 | – | –
O=C(CCC(O)CCCc1ccccc1)c1ncc(-c2ccccn2)o1 (centres undefined) | – | 500 | – | –
O=C(O)c1ccc(CCCCCCC(=O)c2ncc(-c3ccccn3)o2)cc1 | – | > 600 | – | –
Nc1cccc(CCCCCCC(=O)c2ncc(-c3ccccn3)o2)c1 | – | 30 | – | –
COC(=O)c1cccc(C#CCCCCC(=O)c2ncc(-c3ccccn3)o2)c1 | – | 30 | – | –
O=C(CCCCSCc1ccccc1)c1ncc(-c2ccccn2)o1 | – | 25 | – | –
O=C(CCCCC[S+]([O-])c1ccccc1)c1ncc(-c2ccccn2)o1 (centres undefined) | – | 1000 | – | –
O=C(CCCCC#Cc1ccccc1[N+](=O)[O-])c1ncc(-c2ccccn2)o1 | – | 17 | – | –
O=C(CCc1ccc(Nc2ccccc2)cc1)c1ncc(-c2ccccn2)o1 | > 20000 | – | 120 | –
O=C(CCCCC#Cc1cccc([N+](=O)[O-])c1)c1ncc(-c2ccccn2)o1 | – | 4.8 | – | –
O=C(CCCCCCc1cccc2ccccc12)c1ncc(-c2ccccn2)o1 | > 10000 | – | 30 | –
O=C(CCCCOCc1ccccc1)c1ncc(-c2ccccn2)o1 | – | 55 | – | –
O=C(CCCCC#Cc1ccc(C(F)(F)F)cc1)c1ncc(-c2ccccn2)o1 | – | 75 | – | –
O=C(CCCCC#Cc1ccc(F)cc1)c1ncc(-c2ccccn2)o1 | – | 36 | – | –
OC(CCCCCc1ccccc1)C(O)c1ncc(-c2ccccn2)o1 (centres undefined) | – | 2000 | – | –
O=C(CCCCC(=O)c1ncc(-c2ccccn2)o1)Nc1ccccc1 | – | 3100 | – | –
O=C(CCCOCCc1ccccc1)c1ncc(-c2ccccn2)o1 | – | 63 | – | –
O=C(CCCCC#Cc1cccc(C(F)(F)F)c1)c1ncc(-c2ccccn2)o1 | – | 10 | – | –
